Measured values: patent US20240150346A1, “CLASS OF HETEROAROMATIC COMPOUND, PREPARATION METHOD THEREFOR AND USE THEREOF” (INNOVSTONE THERAPEUTICS LIMITED, priority 2021, published 2024)

Each molecule was assayed against T1, human-derived receptor TLR7 (Homo sapiens, UniProt Q9NYK1) (assay: Assay on agonistic activity for human-derived receptor TLR7 (HEK-Blue hTLR7 cells, HEK-Blue Detection Medium)). Settings: 16 h incubation, absorbance at 655 nm, read-out: EC50.
T1 construct: host or cells: HEK-Blue hTLR7 cells (HEK293-derived reporter line)
T1 sequence (Q9NYK1 27-1049): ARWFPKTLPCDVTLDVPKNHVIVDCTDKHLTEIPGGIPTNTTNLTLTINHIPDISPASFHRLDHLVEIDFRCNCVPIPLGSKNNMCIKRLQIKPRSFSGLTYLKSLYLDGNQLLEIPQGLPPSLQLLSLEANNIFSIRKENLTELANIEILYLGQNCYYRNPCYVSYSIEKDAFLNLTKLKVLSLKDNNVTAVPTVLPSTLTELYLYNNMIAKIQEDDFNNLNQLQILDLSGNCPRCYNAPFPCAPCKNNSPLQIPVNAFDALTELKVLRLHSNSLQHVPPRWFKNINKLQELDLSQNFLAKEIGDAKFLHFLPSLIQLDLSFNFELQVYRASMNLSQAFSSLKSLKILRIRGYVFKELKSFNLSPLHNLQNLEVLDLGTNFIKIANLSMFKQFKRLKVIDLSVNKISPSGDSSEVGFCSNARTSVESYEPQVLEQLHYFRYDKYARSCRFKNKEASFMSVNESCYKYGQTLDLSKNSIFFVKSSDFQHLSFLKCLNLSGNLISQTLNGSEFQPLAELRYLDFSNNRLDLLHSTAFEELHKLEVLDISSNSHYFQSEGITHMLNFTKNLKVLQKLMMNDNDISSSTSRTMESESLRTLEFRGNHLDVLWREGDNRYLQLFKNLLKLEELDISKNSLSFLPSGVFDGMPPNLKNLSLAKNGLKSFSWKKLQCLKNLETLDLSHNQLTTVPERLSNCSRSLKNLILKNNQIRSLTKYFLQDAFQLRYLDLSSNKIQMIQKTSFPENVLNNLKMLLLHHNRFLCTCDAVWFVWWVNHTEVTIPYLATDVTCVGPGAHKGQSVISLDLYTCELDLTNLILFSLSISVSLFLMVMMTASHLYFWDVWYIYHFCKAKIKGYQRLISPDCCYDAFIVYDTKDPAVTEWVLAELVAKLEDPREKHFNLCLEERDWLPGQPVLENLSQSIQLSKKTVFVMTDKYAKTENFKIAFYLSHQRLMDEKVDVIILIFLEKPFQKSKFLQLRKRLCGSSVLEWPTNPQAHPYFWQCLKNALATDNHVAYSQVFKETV
Format: cell-based
Experimental: HEK-Blue™ hTLR7 cells (InvivoGen, hkb-htlr7) were cultured in a DMEM complete medium (Gibco, 12100) containing 10% FBS (Invitrogen, 10099141), 1% P/S (Invitrogen, 15140122), 10 μg/mL Blasticidin (InvivoGen, ant-bl-1), 100 μg/mL Zeocin (InvivoGen, ant-zn-1), and 100 μg/mL Normocin (InvivoGen, ant-nr-1). The cells were cultured in an incubator at 37° C. with 5% CO2. When HEK-Blue™ hTLR7 cells reached a growth density of 70%-80%, cell passage was needed.
The agonistic activity for the human-derived receptor TLR7 by HEK-Blue™ hTLR7 cells was assayed by HEK-Blue™ Detection Medium (InvivoGen, hd-det2). First, a bag of HEK-Blue™ Detection Medium powder was dissolved in 50 mL of ultra-pure sterile water for complete dissolution, and then the dissolved medium was filtered into a new 50 mL centrifuge tube through a 0.22 μm filter. Finally, antibiotics were added into the filtered detection medium until the final concentration was 1% for P/S and 100 μg/mL for Normocin. HEK-Blue™ Detection Medium was pre-heated to 37° C. in advance on the day of the assay on the activity for the TLR7 receptor, and the temperature was always maintained at 37° C.
The compound powder was dissolved in 100% DMSO (Sigma, D2650-100ML) to obtain a 10 mM stock solution, and the compound was completely dissolved by shaking with an oscillator. The stock solution of the compound was subjected to a 5-fold dilution to 2 mM with 100% DMSO. This was followed by a 3-fold serial dilution for a total of 8 concentration gradients. Then, each of the concentration gradients was subjected to a 20-fold dilution to 100 μM, 33.3 μM, 11.1 μM, 3.7 μM, 1.23 μM, […], 0.114 μM, and 0.05 μM using HEK-Blue™ Detection Medium. 20 μL of each of the dilutions was added to a 96-well cell culture plate (Corning, 3599).
On the day of the assay on the agonistic activity for the human-detived receptor TLR7, HEK-Blue™ hTLR7 cells has a growth density of 70%-80%, and the cell medium was removed. 1 mL of cell dissociation buffer (Gibco, 13151-014) was added to each 100 mm cell culture dish, and the cells were incubated in an incubator at 37° C. for 5 min. The cells were pipetted using a DMEM cell medium to obtain a single cell suspension, which was then centrifuged at 1000 rpm for 10 min to collect the cell pellet. The cell pellet was resuspended with HEK-Blue™ Detection Medium pre heated to 37° C. The cells were counted and diluted to 220,000 cells/mL. Finally, 180 μL of cell suspension (40,000 cells/well) was added to each well of the 96-well cell culture plate to which the compound had been added, and the cell suspension was mixed with the compound using a pipettor. Final concentrations of the compound were 10 μM, 3.3 μM, 1.1 μM, 0.37 μM, 0.12 μM, 0.04 μM, 0.01 μM, and 0.005 μM. After incubation in an incubator at 37° C. for 16 h, the absorbance was read at 655 nm using an M5e microplate reader (MD, USA).
The EC50 of the compound was calculated using the software GraphPad Prism (GraphPad Software, USA). The background reading of the detection culture was subtracted from the absorbance readings at 655 nm of all wells of the 96-well plate, the ratio of each well to the negative control well (the well without the compound) was calculated, and then the percentage of the ratio of each well to the positive control well (the well treated with 10 μM positive compound), i.e., the percentage of activity, was calculated. Finally, the sigmoidal dose-response (variable slope) curve between the percentage of activity and the concentration of the compound was calculated using the software GraphPad Prism to calculate the EC50 of the compound. […]

Row | SMILES | EC50 [µM]
1 | COc1cc(C2CCN(C)CC2)ccc1Cn1c(SC)nc2c(N)nc3ccccc3c21 [Example 246] | 0.05 to 0.1
2 | COc1cc(CN2CCN(C)CC2)ccc1Cn1c(SC)nc2c(N)nc3ccccc3c21 [Example 247] | 0.05 to 0.1
3 | COc1cc(OCCN(C)C)ccc1Cn1c(SC)nc2c(N)nc3ccccc3c21 [Example 248] | 0.05 to 0.1
4 | CCCCOc1nc(N)c2c(n1)N(Cc1ccc(Oc3ccc(CNC)cc3)cc1)CC(=O)N2 [Example 252, 4-amino-2-butoxy-8-(4-(4-((methylamino)methyl)phenoxy)benzyl)-7,8-dihydropteridin-6(5H)-one] | < 0.05

Next, values leading:

Row | EC50 [µM] | SMILES
5 | 0.05 to 0.1 | COc1cc(CN2CCNCC2)ccc1Cn1c(SC)nc2c(N)nc3ccccc3c21 [Example 238]
6 | 0.05 to 0.1 | COc1cc(CN2C[C@H]3CN(C)C[C@H]3C2)ccc1Cn1c(SC)nc2c(N)nc3ccccc3c21 [Example 239]
7 | 0.05 to 0.1 | COc1cc(CNC(C)C)ccc1Cn1c(SC)nc2c(N)nc3ccccc3c21 [Example 241]
8 | 0.05 to 0.1 | COc1cc(CN2CC(O)C2)ccc1Cn1c(SC)nc2c(N)nc3ccccc3c21 [Example 244]
9 | 0.05 to 0.1 | COc1cc(CN2CC[C@H](O)C2)ccc1Cn1c(SC)nc2c(N)nc3ccccc3c21 [Example 245]
